US9534004B2, “Crystalline forms of ceftaroline fosamil” (Sandoz AG, priority 2012, dated 2017)

Assays:
Assay type in all cases: physicochemical
[1] = Storage at different relative humidities (composition / pKa constancy); conditions: for change of composition when stored at different relative humidities: pKa of the drug substance not affected
Description: Both ceftaroline fosamil acetic acid solvate monohydrate and ceftaroline fosamil propionic acid solvate monohydrate of EP1310502 A1 contain carbon acids in their crystal structure. […] Consequently in order to avoid batch-wise adjusting of the pH adjusting excipient, ceftaroline fosamil acetic acid solvate monohydrate and ceftaroline fosamil propionic acid solvate monohydrate of EP1310502 A1 need to be stored at low relative humidities in order to ensure a constant carbon acid amount and therefore a constant pKa value of the drug substance.

[2] = Humidity and temperature controlled XRPD (sorptive/desorptive cycle, 0-90% RH); conditions: RH varied between 0 and 90%, 25° C.
Description: The positions of certain XRPD peaks of form H change when varying the RH between 0 and 90%. XRPD measurements in this range show anisotropic peak shifts to higher 2-theta angles on drying, which are reversible when increasing the relative humidity. These shifts are due to the shrinkage respectively the expansion of the unit cell caused by humidity dependent water contents in the sample. […] Table 1 lists some characteristic XRPD peaks from diffractograms recorded at increasing relative humidities during the sorptive cycle of the experiment.
For humidity and temperature controlled XRPD measurements samples were equilibrated in a VGI 2000M humidity chamber (SMS, Middlesex UK) with integrated peltier heat pump, circulating fluid pump and water reservoir to ensure uniform temperature distribution and stable sample humidities. RH controlled sorptive and desorptive measurements were recorded between 0%-90% RH+/−0.3% RH in 10% steps with an equilibrium time of 2 hours between consecutive measurements.

Residual solvent content = conditions: form obtained from slurry in aqueous ethanol
Description: The amounts of residual solvents of the novel forms H and D of ceftaroline fosamil of the present invention are well within the allowed ICH-limits. E.g. for the production of form H of ceftaroline fosamil of the present invention no organic solvent is used as this specific form is obtained from a slurry in water. Form D is obtained from a slurry of ceftaroline fosamil in aqueous ethanol. […] Therefore ceftaroline fosamil forms H and D are suitable forms for the preparation of a medicament.

SMILES	fate of carbon acid in the crystal structure at increased relative humidities ([1]; increased relative humidities, decreased carbon acid amount affects pKa of drug substance)	physical (solid form) stability on varying relative humidity, by XRPD [2]	change of composition when stored at different relative humidities [1]	ethanol amount (residual solvent) (Residual solvent content)
CCO/N=C(\C(=O)N[C@@H]1C(=O)N2C(C(=O)[O-])=C(Sc3nc(-c4cc[n+](C)cc4)cs3)CS[C@H]12)c1nsc(NP(=O)(O)O)n1 [ceftaroline fosamil acetic acid solvate monohydrate, reference compound]	partially replaced by water			
CCO/N=C(\C(=O)N[C@@H]1C(=O)N2C(C(=O)[O-])=C(Sc3nc(-c4cc[n+](C)cc4)cs3)CS[C@H]12)c1nsc(NP(=O)(O)O)n1 [form D, ceftaroline fosamil]		no peak shifts are observed	only show variations in their water content	below 0.5%
CCO/N=C(\C(=O)N[C@@H]1C(=O)N2C(C(=O)[O-])=C(Sc3nc(-c4cc[n+](C)cc4)cs3)CS[C@H]12)c1nsc(NP(=O)(O)O)n1 [form H, ceftaroline fosamil]		a phase transformation can be excluded	only show variations in their water content	
